Experiments:
[1] = system: CASOB (Sicklepod); assay: Preemergence herbicidal evaluation; assay type: in vivo, Cassia obtusifolia; conditions: rated 4-5 weeks after treatment
Outline: (§1)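 Greenhouse preemergence test: seed-soil mix sown on ~1 inch soil; aqueous acetone spray at equivalent of ~0.0156–0.500 kg/ha; greenhouse-held and watered; scored 0–9 visually at 4–5 weeks.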

[2] = system: TRZAWR (Wheat, Winter, cv Riband); assay: Preemergence herbicidal evaluation; assay type: in vivo, Triticum aestivum; conditions: rated 4-5 weeks after treatment
Outline: as §1

[3] = system: CHEAL (Lambsquarters, Common); assay: Postemergence herbicidal evaluation; assay type: in vivo, Chenopodium album; conditions: postemergence
Outline: (§2)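 Compound is applied as a foliar spray to seedlings about two weeks old, formulated in equal parts acetone and water with 0.5% TWEEN 20 and delivered at 40 psi to give about 0.0156–0.500 kg per hectare. Injury is rated visually 0–9 after four to five weeks.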

[4] = system: ECHCG (Barnyardgrass); assay: Preemergence herbicidal evaluation; assay type: in vivo, Echinochloa crus-galli; conditions: rated 4-5 weeks after treatment
Outline: as §1

[5] = system: MOOVA (Monochoria); assay: Preemergence weed control under flooded paddy conditions; assay type: in vivo, Monochoria vaginalis; conditions: rated 3-4 weeks after treatment
Outline: (§3)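 Ratings on a 0-9 visual scale cover stand, vigor, malformation, size, chlorosis and overall appearance relative to a control, taken three to four weeks post-treatment. Application was into flood water over freshly sown silt loam at roughly 0.0313 to 0.500 kg/ha.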

[6] = system: SETVI (Foxtail, Green); assay: Preemergence herbicidal evaluation; assay type: in vivo, Setaria viridis; conditions: rated 4-5 weeks after treatment
Outline: as §1

[7] = system: GALAP (Galium); assay: Postemergence herbicidal evaluation; assay type: in vivo, Galium aparine; conditions: postemergence
Outline: as §2

[8] = system: TRZAWR (Wheat, Winter, cv Riband); assay: Postemergence herbicidal evaluation; assay type: in vivo, Triticum aestivum; conditions: postemergence
Outline: as §2

[9] = system: ZEAMX (Corn, Field); assay: Postemergence herbicidal evaluation; assay type: in vivo, Zea mays; conditions: postemergence
Outline: as §2

[10] = system: ABUTH (Velvetleaf); assay: Postemergence herbicidal evaluation; assay type: in vivo, Abutilon theophrasti; conditions: postemergence
Outline: as §2

[11] = system: CASOB (Sicklepod); assay: Postemergence herbicidal evaluation; assay type: in vivo, Cassia obtusifolia; conditions: postemergence
Outline: as §2

[12] = system: ORYSAT (Rice, Tebonnet); assay: Preemergence herbicidal evaluation; assay type: in vivo, Oryza sativa, (L.) Tebonnet; conditions: rated 4-5 weeks after treatment
Outline: as §1

[13] = system: SAGPY (Arrowhead (Pygmaea)); assay: Preemergence weed control under flooded paddy conditions; assay type: in vivo, Sagittaria pygmaea; conditions: rated 3-4 weeks after treatment
Outline: as §3

[14] = system: IPOHE (Morningglory, Ivyleaf); assay: Preemergence herbicidal evaluation; assay type: in vivo, Ipomoea hederacea; conditions: rated 4-5 weeks after treatment
Outline: as §1

[15] = system: GLXMAW (Soybean, Williams); assay: Preemergence herbicidal evaluation; assay type: in vivo, Glycine max, (L.) Merr. cv Williams; conditions: rated 4-5 weeks after treatment
Outline: as §1

[16] = system: GALAP (Galium); assay: Preemergence herbicidal evaluation; assay type: in vivo, Galium aparine; conditions: rated 4-5 weeks after treatment
Outline: as §1

[17] = system: IPOHE (Morningglory, Ivyleaf); assay: Postemergence herbicidal evaluation; assay type: in vivo, Ipomoea hederacea; conditions: postemergence
Outline: as §2

## CC1SC(=Nc2cc(N3C(=O)C4=C(CCCC4)C3=O)c(F)cc2Cl)N(C)C1=O (stereo not shown) [Compound 4]
[1]; rate 0.1250 kg/ha
  CASOB preemergence herbicidal rating: 0.0
[1]; rate 0.2500 kg/ha
  CASOB preemergence herbicidal rating: 2.0
[1]; rate 0.5000 kg/ha
  CASOB preemergence herbicidal rating: 7.0
[2]; rate 0.1250 kg/ha
  TRZAWR preemergence herbicidal rating: 2.0
[2]; rate 0.2500 kg/ha
  TRZAWR preemergence herbicidal rating: 3.0
[2]; rate 0.5000 kg/ha
  TRZAWR preemergence herbicidal rating: 3.0
[3]; rate 0.0313 kg/ha
  CHEAL herbicidal rating: 2.0
[3]; rate 0.0625 kg/ha
  CHEAL herbicidal rating: 6.0
[3]; rate 0.1250 kg/ha
  CHEAL herbicidal rating: 8.0
[3]; rate 0.2500 kg/ha
  CHEAL herbicidal rating: 4.0
[3]; rate 0.5000 kg/ha
  CHEAL herbicidal rating: 4.0
[4]; rate 0.1250 kg/ha
  ECHCG preemergence herbicidal rating: 0.0
[4]; rate 0.2500 kg/ha
  ECHCG preemergence herbicidal rating: 2.0
[4]; rate 0.5000 kg/ha
  ECHCG preemergence herbicidal rating: 6.0
[5]; 0.0313 kg/ha
  Herbicidal rating MOOVA: 2.0
[5]; 0.0625 kg/ha
  Herbicidal rating MOOVA: 7.0
[5]; 0.1250 kg/ha
  Herbicidal rating MOOVA: 8.0
[5]; 0.2500 kg/ha
  Herbicidal rating MOOVA: 9.0
[5]; 0.5000 kg/ha
  Herbicidal rating MOOVA: 9.0
[6]; rate 0.1250 kg/ha
  SETVI preemergence herbicidal rating: 2.0
[6]; rate 0.2500 kg/ha
  SETVI preemergence herbicidal rating: 4.0
[6]; rate 0.5000 kg/ha
  SETVI preemergence herbicidal rating: 9.0
[7]; rate 0.0313 kg/ha
  GALAP herbicidal rating: 0.0
[7]; rate 0.0625 kg/ha
  GALAP herbicidal rating: 2.0
[7]; rate 0.1250 kg/ha
  GALAP herbicidal rating: 2.0
[7]; rate 0.5000 kg/ha
  GALAP herbicidal rating: 6.0
[8]; rate 0.0313 kg/ha
  TRZAWR herbicidal rating: 3.0
[8]; rate 0.0625 kg/ha
  TRZAWR herbicidal rating: 3.5
[8]; rate 0.1250 kg/ha
  TRZAWR herbicidal rating: 4.0
[8]; rate 0.2500 kg/ha
  TRZAWR herbicidal rating: 4.5
[8]; rate 0.5000 kg/ha
  TRZAWR herbicidal rating: 4.5
[9]; rate 0.0313 kg/ha
  ZEAMX herbicidal rating: 3.0
[9]; rate 0.0625 kg/ha
  ZEAMX herbicidal rating: 3.5
[9]; rate 0.1250 kg/ha
  ZEAMX herbicidal rating: 4.0
[9]; rate 0.2500 kg/ha
  ZEAMX herbicidal rating: 4.0
[9]; rate 0.5000 kg/ha
  ZEAMX herbicidal rating: 4.0
[10]; rate 0.0313 kg/ha
  ABUTH herbicidal rating: 2.0
[10]; rate 0.0625 kg/ha
  ABUTH herbicidal rating: 4.0
[10]; rate 0.1250 kg/ha
  ABUTH herbicidal rating: 9.0
[10]; rate 0.2500 kg/ha
  ABUTH herbicidal rating: 9.0
[10]; rate 0.5000 kg/ha
  ABUTH herbicidal rating: 9.0
[11]; rate 0.0313 kg/ha
  CASOB herbicidal rating: 0.0
[11]; rate 0.0625 kg/ha
  CASOB herbicidal rating: 0.0
[11]; rate 0.1250 kg/ha
  CASOB herbicidal rating: 0.0
[11]; rate 0.2500 kg/ha
  CASOB herbicidal rating: 0.0
[11]; rate 0.5000 kg/ha
  CASOB herbicidal rating: 2.0
[12]; rate 0.1250 kg/ha
  ORYSAT preemergence herbicidal rating: 0.0
[12]; rate 0.2500 kg/ha
  ORYSAT preemergence herbicidal rating: 2.0
[12]; rate 0.5000 kg/ha
  ORYSAT preemergence herbicidal rating: 4.0
[13]; 0.0313 kg/ha
  Herbicidal rating SAGPY: 0.0
[13]; 0.0625 kg/ha
  Herbicidal rating SAGPY: 0.0
[13]; 0.1250 kg/ha
  Herbicidal rating SAGPY: 0.0
[13]; 0.2500 kg/ha
  Herbicidal rating SAGPY: 0.0
[13]; 0.5000 kg/ha
  Herbicidal rating SAGPY: 0.0

## CCOC(=O)CN1C(=O)C(CC(=O)O)SC1=Nc1cc(-n2nc(C)n(C(F)F)c2=O)c(F)cc1Cl (stereo not shown) [Compound 112, 2-{{2-Chloro-5-[4-(difluoromethyl)-4,5-dihydro-3-methyl-5-oxo-1H-1,2,4-triazol-1-yl]-4-fluorophenyl}imino}-4-oxo-3,5-thiazolidinediacetic acid, 3-ethyl ester]
[1]; rate 0.0313 kg/ha
  Preemergence herbicidal rating CASOB: 0.0
[1]; rate 0.0625 kg/ha
  Preemergence herbicidal rating CASOB: 0.0
[1]; rate 0.1250 kg/ha
  Preemergence herbicidal rating CASOB: 0.0
[1]; rate 0.2500 kg/ha
  Preemergence herbicidal rating CASOB: 0.0
[2]; rate 0.0313 kg/ha
  Preemergence herbicidal rating TRZAWR: 0.0
[2]; rate 0.0625 kg/ha
  Preemergence herbicidal rating TRZAWR: 0.0
[2]; rate 0.1250 kg/ha
  Preemergence herbicidal rating TRZAWR: 0.0
[2]; rate 0.2500 kg/ha
  Preemergence herbicidal rating TRZAWR: 1.0
[3]; rate 0.0158 kg/ha
  herbicidal rating CHEAL: 4.0
[3]; rate 0.0315 kg/ha
  herbicidal rating CHEAL: 9.0
[3]; rate 0.0630 kg/ha
  herbicidal rating CHEAL: 9.0
[14]; rate 0.0313 kg/ha
  Preemergence herbicidal rating IPOHE: 0.0
[14]; rate 0.0625 kg/ha
  Preemergence herbicidal rating IPOHE: 0.0
[14]; rate 0.1250 kg/ha
  Preemergence herbicidal rating IPOHE: 0.0
[14]; rate 0.2500 kg/ha
  Preemergence herbicidal rating IPOHE: 0.0
[4]; rate 0.0313 kg/ha
  Preemergence herbicidal rating ECHCG: 0.0
[4]; rate 0.0625 kg/ha
  Preemergence herbicidal rating ECHCG: 0.0
[4]; rate 0.1250 kg/ha
  Preemergence herbicidal rating ECHCG: 0.0
[4]; rate 0.2500 kg/ha
  Preemergence herbicidal rating ECHCG: 0.0
[15]; rate 0.0313 kg/ha
  Preemergence herbicidal rating GLXMAW: 0.0
[15]; rate 0.0625 kg/ha
  Preemergence herbicidal rating GLXMAW: 1.0
[15]; rate 0.1250 kg/ha
  Preemergence herbicidal rating GLXMAW: 3.0
[15]; rate 0.2500 kg/ha
  Preemergence herbicidal rating GLXMAW: 3.0
[5]; 0.0313 kg/ha
  MOOVA herbicidal effect rating: 9.0
[5]; 0.0625 kg/ha
  MOOVA herbicidal effect rating: 9.0
[5]; 0.1250 kg/ha
  MOOVA herbicidal effect rating: 9.0
[5]; 0.2500 kg/ha
  MOOVA herbicidal effect rating: 9.0
[6]; rate 0.0313 kg/ha
  Preemergence herbicidal rating SETVI: 1.0
[6]; rate 0.0625 kg/ha
  Preemergence herbicidal rating SETVI: 0.0
[6]; rate 0.1250 kg/ha
  Preemergence herbicidal rating SETVI: 0.0
[6]; rate 0.2500 kg/ha
  Preemergence herbicidal rating SETVI: 0.0
[7]; rate 0.0158 kg/ha
  herbicidal rating GALAP: 0.0
[7]; rate 0.0315 kg/ha
  herbicidal rating GALAP: 2.0
[7]; rate 0.0630 kg/ha
  herbicidal rating GALAP: 2.0
[8]; rate 0.0158 kg/ha
  herbicidal rating TRZAWR: 2.0
[8]; rate 0.0315 kg/ha
  herbicidal rating TRZAWR: 2.0
[8]; rate 0.0630 kg/ha
  herbicidal rating TRZAWR: 3.0
[9]; rate 0.0158 kg/ha
  herbicidal rating ZEAMX: 4.5
[9]; rate 0.0315 kg/ha
  herbicidal rating ZEAMX: 4.5
[9]; rate 0.0630 kg/ha
  herbicidal rating ZEAMX: 5.0
[16]; rate 0.0313 kg/ha
  Preemergence herbicidal rating GALAP: 0.0
[16]; rate 0.0625 kg/ha
  Preemergence herbicidal rating GALAP: 0.0
[16]; rate 0.1250 kg/ha
  Preemergence herbicidal rating GALAP: 0.0
[16]; rate 0.2500 kg/ha
  Preemergence herbicidal rating GALAP: 0.0
[10]; rate 0.0158 kg/ha
  herbicidal rating ABUTH: 9.0
[10]; rate 0.0315 kg/ha
  herbicidal rating ABUTH: 9.0
[10]; rate 0.0630 kg/ha
  herbicidal rating ABUTH: 9.0
[11]; rate 0.0158 kg/ha
  herbicidal rating CASOB: 1.0
[11]; rate 0.0315 kg/ha
  herbicidal rating CASOB: 1.0
[11]; rate 0.0630 kg/ha
  herbicidal rating CASOB: 2.0
[17]; rate 0.0158 kg/ha
  herbicidal rating IPOHE: 9.0
[17]; rate 0.0315 kg/ha
  herbicidal rating IPOHE: 9.0
[17]; rate 0.0630 kg/ha
  herbicidal rating IPOHE: 9.0
[12]; rate 0.0313 kg/ha
  Preemergence herbicidal rating ORYSAT: 0.0
[12]; rate 0.0625 kg/ha
  Preemergence herbicidal rating ORYSAT: 0.0
[12]; rate 0.1250 kg/ha
  Preemergence herbicidal rating ORYSAT: 0.0
[12]; rate 0.2500 kg/ha
  Preemergence herbicidal rating ORYSAT: 2.0
[13]; 0.0313 kg/ha
  SAGPY herbicidal effect rating: 6.0
[13]; 0.0625 kg/ha
  SAGPY herbicidal effect rating: 7.0
[13]; 0.1250 kg/ha
  SAGPY herbicidal effect rating: 7.0
[13]; 0.2500 kg/ha
  SAGPY herbicidal effect rating: 7.0
